One experiment deals with DOHH2 cells. The experiment in a line: Cell proliferation assay (MTS), DOHH2 cells, 120 h. Format: cell-based. Summed up:
(§1)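 Cells in RPMI-1640 with 10% FBS were seeded at 5000/well, left overnight at 37° C., 5% CO2, then exposed to compound at 10000 down to 1.5 nM (nine concentrations) for 72 h (RS4;11) or 120 h (DOHH2). Viability was read by MTS, 2 h, absorbance at 490/650 nm; IC50 calculated.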

A further experiment deals with RS4;11 cells. The experiment in a line: Cell proliferation assay (MTS), RS4;11 cells, 72 h. Format: cell-based. In short, it runs like this: as §1

pIC50: −log10 of the molar value. Read-outs that look alike come from different tables or passages of the source.

Turning to `COC1CCC([C@H]2COc3cc(S(=O)(=O)NC(=O)c4ccc(N5CCN(CC6=C(c7ccc(Cl)cc7)CC(C)(C)CC6)CC5)cc4Oc4cnc5[nH]ccc5c4)cc([N+](=O)[O-])c3N2)CC1` (stereo partly drawn) [Example 2-247B, (S)-2-((1H-pyrrolo[2,3-b]pyridin-5-yl)oxy)-4-(4-((4′-chloro-5,5-dimethyl-3,4,5,6-tetra-hydro-[1,1′-biphenyl]-2-yl)methyl)piperazin-1-yl)-N-((3-(4-methoxycyclohexyl)-5-nitro-3,4-dihydro-2H-benzo[b][1,4]oxazin-7-yl)sulfonyl)benzamide], the pIC50 in the experiment with DOHH2 cells is 7.44; with RS4;11 cells it was 7.35.

As to `CC1(C)CCC(CN2CCN(c3ccc(C(=O)NS(=O)(=O)c4cc5c(c([N+](=O)[O-])c4)N[C@H](c4ccccn4)CO5)c(Oc4cnc5[nH]ccc5c4)c3)CC2)=C(c2ccc(Cl)cc2)C1` [Example 2-177, (R)-2-((1H-pyrrolo[2,3-b]pyridin-5-yl)oxy)-4-(4-((4′-chloro-5,5-dimethyl-3,4,5,6-tetra-hydro-[1,1′-biphenyl]-2-yl)methyl)piperazin-1-yl)-N-((5-nitro-3-(pyridin-2-yl)-3,4-di-hydro-2H-benzo[b][1,4]oxazin-7-yl)sulfonyl) benzamide], the pIC50 is 6.92 in the experiment on DOHH2 cells (Homo sapiens, DOHH-2, 120 h) and 7.89 in the experiment on RS4;11 cells (Homo sapiens, RS4-11, 72 h).

Regarding `CN1CCN(CC[C@H]2Cc3cc(S(=O)(=O)NC(=O)c4ccc(N5CCN(CC6=C(c7ccc(Cl)cc7)CC(C)(C)CC6)CC5)cc4Oc4cnc5[nH]ccc5c4)cc([N+](=O)[O-])c3N2)CC1` [Example 1-15, (R)-2-((1H-pyrrolo[2,3-b]pyridin-5-yl)oxy)-4-(4-((4′-chloro-5,5-dimethyl-3,4,5,6-tetrahydro-[1,1′-biphenyl]-2-yl)methyl)piper-azin-1-yl)-N-((2-(2-(4-methylpiperazin-1-yl)ethyl)-7-nitroindolin-5-yl)sulfonyl) benzamide], the pIC50 in the experiment on DOHH2 cells (Homo sapiens, DOHH-2, 120 h) is 7.30; in the experiment on RS4;11 cells (Homo sapiens, RS4-11, 72 h), 7.82.

With `CC1(C)CCC(CN2CCN(c3ccc(C(=O)NS(=O)(=O)c4cc5c(c([N+](=O)[O-])c4)N[C@H](C4CC4)CO5)c(Oc4cnc5[nH]ccc5c4)c3)CC2)=C(c2ccc(Cl)cc2)C1` [Example 2-109, (R)-2-((1H-pyrrolo[2,3-b]pyridin-5-yl)oxy)-4-(4-((4′-chloro-5,5-dimethyl-3,4,5,6-tetra-hydro[1,1′-biphenyl]-2-yl)methyl)piperazin-1-yl)-N-((3-cyclopropyl-5-nitro-3,4-dihy-dro-2H-benzo[b][14,]oxazin-7-yl)sulfonyl) benzamide], the pIC50 with DOHH2 cells (Homo sapiens, DOHH-2, 120 h) was 7.25; in the experiment with RS4;11 cells (Homo sapiens, RS4-11, 72 h) it was 7.96.

With `CC1(C)CCC(CN2CCN(c3ccc(C(=O)NS(=O)(=O)c4cc5c(c([N+](=O)[O-])c4)N[C@H](C4CCCCC4)CO5)c(Oc4cnc5[nH]ccc5c4)c3)CC2)=C(c2ccc(Cl)cc2)C1` [Example 2-238, (R)-2-((1H-pyrrolo[2,3-b]pyridin-5-yl)oxy)-4-(4-((4′-chloro-5,5-dimethyl-3,4,5,6-tetra-hydro-[1,1′-biphenyl]-2-yl)methyl)piperazin-1-yl)-N-((3-cyclohexyl-5-nitro-3,4-dihydro-2H-benzo[b][1,4]oxazin-7-yl)sulfo-nyl)benzamide], the pIC50 in the experiment with DOHH2 cells (Homo sapiens, DOHH-2, 120 h) is 7.74; in the experiment with RS4;11 cells (Homo sapiens, RS4-11, 72 h), 8.05.

In the case of `CC(=O)N1CCC(C[C@@H]2COc3cc(S(=O)(=O)NC(=O)c4ccc(N5CCN(CC6=C(c7ccc(Cl)cc7)CC(C)(C)CC6)CC5)cc4Oc4cnc5[nH]ccc5c4)cc([N+](=O)[O-])c3N2)CC1` [Example 2-203, (R)-2-((1H-pyrrolo[2,3-b]pyridin-5-yl)oxy)-N-((3-((1-acetylpiperidin-4-yl)methyl)-5-nitro-3,4-dihydro-2H-benzo[b][1,4]oxazin-7-yl)sulfonyl)-4-(4-((4′-chloro-5,5-dimethyl-3,4,5,6-tetrahydro-[1,1′-biphenyl]-2-yl)meth-yl)piperazin-1-yl)benzamide], the pIC50 is 7.02 with DOHH2 cells (Homo sapiens, DOHH-2, 120 h) and 7.70 in the experiment with RS4;11 cells (Homo sapiens, RS4-11, 72 h).

For `COC(=O)N1CCC([C@@H]2COc3cc(S(=O)(=O)NC(=O)c4ccc(N5CCN(CC6=C(c7ccc(Cl)cc7)CC(C)(C)CC6)CC5)cc4Oc4cnc5[nH]ccc5c4)cc([N+](=O)[O-])c3N2)CC1` [Example 2-223, methyl (R)-4-(7-(N-(2-((1H-pyrrolo[2,3-b]pyridin-5-yl)oxy)-4-(4-((4′-chloro-5,5-dimethyl-3,4,5,6-tetrahydro-[1,1′-biphenyl]-2-yl)methyl)piperazin-1-yl)benzoyl)sulfamoyl)-5-nitro-3,4-dihydro-2H-benzo[b][1,4]oxazin-3-yl) piperidine-1-carboxylate], the pIC50 was 7.96 in the experiment with DOHH2 cells (Homo sapiens, DOHH-2, 120 h) and 9.00 with RS4;11 cells (Homo sapiens, RS4-11, 72 h).

For the compound `COC(=O)N1CCN(C[C@@H]2COc3cc(S(=O)(=O)NC(=O)c4ccc(N5CCN(CC6=C(c7ccc(Cl)cc7)CC(C)(C)CC6)CC5)cc4Oc4cnc5[nH]ccc5c4)cc([N+](=O)[O-])c3N2)CC1` [Example 2-93, methyl (R)-4-((7-(N-(2-((1H-pyrrolo[2,3-b]pyridin-5-yl)oxy)-4-(4-((4′-chloro-5,5-dimethyl-3,4,5,6-tetrahydro-[1,1′-biphenyl]-2-yl)methyl)piperazin-1-yl)benzoyl)sulfamoyl)-5-nitro-3,4-dihydro-2H-benzo[b][1,4]oxazin-3-yl)methyl)piperazine-1-carboxylate], the pIC50 in the experiment on DOHH2 cells (Homo sapiens, DOHH-2, 120 h) is 7.80; in the experiment on RS4;11 cells (Homo sapiens, RS4-11, 72 h), 7.40.

For the compound `CC1(C)CCC(CN2CCN(c3ccc(C(=O)NS(=O)(=O)c4cc5c(c([N+](=O)[O-])c4)N[C@H](CC4CCN(S(C)(=O)=O)CC4)CO5)c(Oc4cnc5[nH]ccc5c4)c3)CC2)=C(c2ccc(Cl)cc2)C1` [Example 2-204, (R)-2-((1H-pyrrolo[2,3-b]pyridin-5-yl)oxy)-4-(4-((4′-chloro-5,5-dimethyl-3,4,5,6-tetra-hydro-[1,1′-biphenyl]-2-yl)methyl)piperazin-1-yl)-N-((3-((1-(methylsulfonyl)piperidin-4-yl)methyl)-5-nitro-3,4-dihydro-2H-benzo [b][1,4]oxazin-7-yl)sulfonyl)benzamide], the pIC50 was 7.77 in the experiment with DOHH2 cells (Homo sapiens, DOHH-2, 120 h) and 7.59 with RS4;11 cells (Homo sapiens, RS4-11, 72 h).

Take `CN1CCN(CC[C@@H]2COc3cc(S(=O)(=O)NC(=O)c4ccc(N5CCN(CC6=C(c7ccc(Cl)cc7)CC(C)(C)CC6)CC5)cc4Oc4cnc5[nH]ccc5c4)cc([N+](=O)[O-])c3N2)CC1` [Example 2-14, (R)-2-((1H-pyrrolo[2,3-b]pyridin-5-yl)oxy)-4-(4-((4′-chloro-5,5-dimethyl-3,4,5,6-tetra-hydro-[1,1′-biphenyl]-2-yl)methyl)piperazin-1-yl)-N-((3-(2-(4-methylpiperazin-1-yl)eth-yl)-5-nitro-3,4-dihydro-2H-benzo[b][1,4]oxazin-7-yl)sulfonyl)benzamide]: the pIC50 in the experiment on DOHH2 cells (Homo sapiens, DOHH-2, 120 h) is 7.82; in the experiment with RS4;11 cells (Homo sapiens, RS4-11, 72 h), 8.40.

As for `C[C@@H]1COc2cc(S(=O)(=O)NC(=O)c3ccc(N4CCN(CC5=C(c6ccc(Cl)cc6)CC(C)(C)CC5)CC4)cc3Oc3cnc4[nH]ccc4c3)cc([N+](=O)[O-])c2N1` [Example 2-106, (R)-2-((1H-pyrrolo[2,3-b]pyridin-5-yl)oxy)-4-(4-((4′-chloro-5,5-dimethyl-3,4,5,6-tetra-hydro-[1,1′-bipehnyl]-2-yl)methyl)piperazin-1-yl)-N-((3-methyl-5-nitro-3,4-dihydro-2H-benzo[b][1,4]oxazin-7-yl)sulfonyl)benza-mide], the pIC50 in the experiment with DOHH2 cells (Homo sapiens, DOHH-2, 120 h) is 7.72; in the experiment with RS4;11 cells (Homo sapiens, RS4-11, 72 h) it was 8.05.

These data come from US11091478B2 (Fochon Pharmaceuticals, Ltd., priority 2017, dated 2021).
